Assay results reported in patent publication US20040253665A1, “Novel peptide-producing enzyme, microbe producing the enzyme and method for dipeptide synthesis using them” (AJINOMOTO CO., INC., priority 2002, published 2004).
Like-named read-outs stand apart in the source and are kept apart here. Non-standard residues stand in square brackets, D forms with d. Residues, ends and D or L forms follow the SMILES beside them.

Assays:
[1] = system: peptide-producing enzyme (Mono S fraction) from Empedobacter brevis strain FERM BP-8113; assay: Enzyme substrate specificity (1)-(10), (13), (14); format: biochemical; conditions: pH 9.0, 25° C., 3 hours
Text: Ester specificity was examined in the case of using L-amino acid ester for the carboxy component. […] The amounts of L-Ala-L-Gln produced in this reaction are shown in Table 4 (HCl represents hydrochloride in Table 4). Peptide production was examined in the case of using L-alanine methyl ester for the carboxy component and using various L-amino acids for the amine component. […] (The “+” mark indicates those peptides for which production was confirmed but which were unable to be quantified due to the absence of a standard, while “tr” indicates a trace amount.) Peptide production was examined in the case of using various types of L-amino acid methyl esters for the carboxy component and using L-glutamine for the amine component. […] Peptide production was examined in the case of using various L-amino acid methyl esters for the carboxy component and various L-amino acids for the amine component. […] (The “tr” indicates a trace amount.) Furthermore, Tween-80 was added to the reaction system to a final concentration of 0.1% in the case of using L-Trp-OMe. (The “+” mark indicates those peptides for which production was confirmed but which were unable to be quantified due to the absence of a standard.) […] (The “tr” indicates a trace amount.) Peptide production was examined using various L-amino acid amides for the carboxy component, and various L-amino acids for the amine component. […] Peptide production was examined in the case of using various L-alanine methyl esters for the carboxy component and C-protected L-amino acids for the amine component. […] Peptide production was examined in the case of using various amino acid methyl esters for the carboxy component and methylamine for the amine component. […] Peptide production was examined in the case of using β-amino acid ester for the carboxy component or β-amino acid for the amine component. […] (The “tr” indicates a trace amount.) Oligopeptide production was examined in the case of using L-amino acid ester for the carboxy component and peptide for the amine component. […] Substrate specificity was additionally assessed using the same enzyme fraction as that used in Example 5. […] (A “+” mark indicates those for which production was confirmed but which were unable to be quantified due to the absence of a standard, while “tr” indicates a trace amount). Substrate specificity with respect to oligopeptide production was assessed using the same enzyme fraction as Example 26. […] (A “+” mark indicates those for which production was confirmed but which were unable to be quantified due to the absence of a standard, while “tr” indicates a trace amount). It should be noted that hydrochlorides were used for all of the carboxy components.

[2] = system: enzyme (SP-Sepharose HP fraction) derived from Sphingobacterium sp. strain FERM BP-8124; format: biochemical; conditions: 0.33 units enzyme, pH 9.0, 25° C., 1.5 hours
Procedure: Substrate specificity was examined for enzyme derived from Sphingobacterium sp. strain FERM BP-8124 (Depositary institution: National Institute for Advanced Industrial Science and Technology, International Patent Organism Depositary, Address of depositary institution: Central. 6, 1-1-1 Higashi, Tsukuba City, Ibaraki Prefecture, Japan, International deposit date: Jul. 22, 2002). 100 μl of 100 mM borate buffer (pH 9.0) containing the various carboxy components at a final concentration of 100 mM and the various amine components at a final concentration of 150 mM shown in Tables 15-1 to 15-4, the SP-Sepharose HP fraction enzyme purified in Example 22 (addition of 0.33 units in the reaction liquid) and 10 mM EDTA were allowed to react at 25° C. for 1.5 hours. […] In addition, hydrochlorides were used for all carboxy components.
Substrate specificity with respect to oligopeptide production was examined for enzyme derived from Sphingobacterium sp. strain FERM BP-8124 (Depositary institution: National Institute for Advanced Industrial Science and Technology,.International Patent Organism Depositary, Address of depositary institution: Chuo Dai-6, 1-1 Higashi 1-Chome, Tsukuba-shi, Ibaraki-ken, Japan, International deposit date: Jul. 22, 2002). A 100 μl aliquot of 100 mM borate buffer (pH 9.0) containing the various carboxy components at a final concentration of 100 mM and the various amine components at a final concentration of 150 mM shown in Table 16, the SP-Sepharose HP fraction enzyme purified in Example 22 (addition of 0.33 units in the reaction liquid) and 10 mM EDTA were allowed to react for 1.5 hours at 25° C. Furthermore, hydrochloride salts were used for all carboxy components.

[3] = L-amino acid methyl ester hydrochloride 100 mM, 150 mM L-glutamine
[4] = Table 15-2, carboxy component 100 mM, L-Gln 150 mM
[5] = L-amino acid methyl ester hydrochloride 100 mM, L-amino acid 150 mM
[6] = Table 15-3, carboxy component 100 mM, amine component 150 mM
[7] = amino acid methyl ester 100 mM, methylamine 150 mM
[8] = Table 15-4, amides or methylamine as components, 100 mM / 150 mM
[9] = 100 mM L-alanine methyl ester hydrochloride, L-amino acid 150 mM
[10] = Table 15-1, carboxy component 100 mM, amine component 150 mM
[11] = L-amino acid ester 100 mM, amino acid or peptide amine component 150 mM
[12] = Table 16, oligopeptide production, carboxy component 100 mM, amine component 150 mM

NC(=O)CC[C@H](NC(=O)[C@@H](N)CO)C(=O)O [L-Ser-L-Gln] (H-Ser-Gln-OH)
Produced peptide [1, 3]: 24.0 mM
Produced peptide [2, 4]: 12.9 mM

CSCC[C@H](NC(=O)[C@@H](N)CO)C(=O)O [L-Ser-L-Met] (H-Ser-Met-OH)
Produced peptide [1, 5]: 12.5 mM
Produced peptide [2, 6]: 7.6 mM

CNC(=O)CN [Gly-methylamine]
Produced peptide [1, 7]: 1.1 mM
Produced peptide [2, 8]: 1.0 mM

NC(=O)CC[C@H](NC(=O)[C@@H](N)CCC(N)=O)C(=O)O [L-Gln-L-Gln] (H-Gln-Gln-OH)
Produced peptide [1, 3]: 0.3 mM
Produced peptide [2, 4]: 0.1 mM

C[C@H](N)C(=O)N[C@@H](Cc1ccc(O)cc1)C(=O)O [L-Ala-L-Tyr] (H-Ala-Tyr-OH)
Produced peptide [1, 9]: 17.6 mM
Produced peptide [2, 10]: 11.1 mM

L-Ala-Gly-L-Ala
Produced peptide [1, 11]: 25.9 mM
Produced peptide [2, 12]: 35.1 mM

CNC(=O)C(C)N [L-Ala-methylamine]
Produced peptide [1, 7]: 0.3 mM
Produced peptide [2, 8]: 0.6 mM

C[C@@H](O)[C@H](N)C(=O)N[C@@H](CCC(N)=O)C(=O)O [L-Thr-L-Gln] (H-Thr-Gln-OH)
Produced peptide ([1]; L-amino acid amide hydrochloride 100 mM as carboxy component, L-amino acid 150 mM): 0.3 mM
Produced peptide [1, 3]: 81.9 mM
Produced peptide [2, 4]: 36.1 mM

CNC(=O)[C@@H](N)[C@@H](C)O [L-Thr-methylamine]
Produced peptide [1, 7]: 0.2 mM
Produced peptide [2, 8]: 0.3 mM

NCC(=O)N[C@@H](CO)C(=O)O [Gly-L-Ser] (H-Gly-Ser-OH)
Produced peptide [1, 5]: 44.2 mM
Produced peptide [2, 6]: 53.8 mM

CC(C)[C@H](N)C(=O)N[C@@H](Cc1ccccc1)C(=O)O [L-Val-L-Phe] (H-Val-Phe-OH)
Produced peptide [1, 5]: 6.1 mM
Produced peptide [2, 6]: 1.0 mM

L-Ala-L-Leu-L-Ala
Produced peptide [1, 11]: 48.3 mM
Produced peptide [2, 12]: 40.7 mM

C[C@@H](N)C(=O)N[C@H](CO)C(=O)O [D-Ala-D-Ser] (H-[dA]-[dS]-OH)
Produced peptide ([1]; L or D amino acid methyl ester hydrochloride 100 mM, L or D amino acid 150 mM): 0.2 mM
Produced peptide [2, 10]: 5.5 mM

C[C@H](N)C(=O)NCC(N)=O [L-Ala-Gly-NH2] (H-Ala-Gly-NH2)
Produced peptide ([1]; L-Ala-OMe 100 mM, L-amino acid amide 150 mM as amine component): 7.4 mM
Produced peptide [2, 8]: 15.1 mM

L-Ala-L-Phe-Gly
Produced peptide [1, 11]: 43.7 mM
Produced peptide [2, 12]: 34.0 mM

C[C@H](N)C(=O)N[C@@H](CCC(=O)O)C(=O)O [L-Ala-L-Glu] (H-Ala-Glu-OH)
Produced peptide [1, 9]: 42.9 mM
Produced peptide [2, 10]: 39.1 mM
